Measured values published in US7795208B2, “Methods of using deacetylase inhibitors to promote cell differentiation and regeneration” (The Salk Institute for Biological Study, priority 2001, dated 2010).

Assays:
4RE-luc and MCK-luc = test: Chromatin-integrated muscle-specific reporters in stable C2C12 clones; type: cell-based, mouse; details: TSA in GM (presence of serum), 48 hours
Experimental: FIGS. 2A-D are graphs showing DI activation muscle-specific transcription in skeletal muscle cells. […] Luciferase activity was measured in non-treated cells cultured in either GM (GM) or DM (DM). Alternatively, C2C12 were exposed to sodium butyrate for 24 hours in GM and then switched to DM without sodium butyrate (Butyr/GM>DM) or treated with sodium butyrate when cultured in DM (Butyr/DM) before being analyzed for luciferase activity. […] Luciferase assays were performed after culturing the cells for 48 hours in DM without sodium butyrate. […] The reporter activity was also analyzed in cells differentiated in the absence of TSA (DM)
Mouse muscle myoblast C2C12 cells (obtained from the American Type Culture Collection, ATCC CRL-1772) and CC42 cells (from Dr. Kenneth Walsh, Tufts University School of Medicine) were cultured in DMEM supplemented with 20% fetal bovine serum, 2 mM glutamine and 1× kanamycin (growth medium, GM). Cellular differentiation was induced with DMEM supplemented with 2% horse serum and 1× insulin, transferring, selenium (Life Technologies). Human skeletal myocytes (CC-2561) were purchased from Clonetics. […] Following transfections, luciferase activity was determined using the Dual-Luciferase reporter assay system (Promega) on a microtiter luminescence detection system (MLX, Dynex). […]

MyoD = test: In vivo acetylation assay (3H-acetate incorporation); type: cell-based, mouse; details: myoblasts cultured in GM
Experimental: In FIG. 3A, MyoD acetylation in undifferentiated C2C12 myoblasts (GM) untreated (−) or treated with either sodium butyrate (Butyr.) or TSA and in differentiated myotubes (abbrev. DM in FIG. 3A, but not to be confused with the abbreviation for “differentiation medium” as used elsewhere herein) was measured by ^3H incorporation of exogenously transfected Flag-tagged MyoD following metabolic labeling with ^3H sodium acetate as described in Sartorelli, V., et al., Molecular Cell 4:725-34 (1999). […] Chromatin was immunoprecipitated with antibodies against acetyl-histone 4 (AcH4) or IgG (as a control). Purified DNA from anti-AcH4 immunoprecipitated chromatin was analyzed by PCR using primers recognizing GAPDH promoter and MCK enhancer as described in Example 1. Unbound DNA (lanes 2 and 3, top panel) is an aliquot of chromatin not immunoprecipitated by anti-AcH4 antibody and amplified with GAPDH primers. Input (lanes 2 and 3, bottom panel) is an aliquot (1%) of the chromatin analyzed before the immunoprecipitation to quantify the amount of DNA present in different samples. […] Myoblasts were then formaldehyde cross-linked and processed.
In vivo acetylation assay was performed as described in Sartorelli, V., et al., Molecular Cell 4:725-34 (1999).
The acetylation of MyoD by ^3H-acetate incorporation in myoblasts, cultured in either the absence or presence of TSA, was evaluated. […]

Q: For `CC(/C=C/C(=O)NO)=C\[C@@H](C)C(=O)c1ccc(N(C)C)cc1` [TSA, trichostatin A], which “activation of integrated 4RE-luc and MCK-luc templates” value (4RE-luc and MCK-luc) is on record?
A: two-to-three

Q: What about the “incorporation of 3H-acetate into transfected MyoD” value (MyoD) of the same compound?
A: stimulated the incorporation
